According to ChEMBL document CHEMBL5584313, “Design and Synthesis of 7-Oxabicyclo[2.2.1]heptane-2,3-dicarboxylic Acid Derivatives as PP5 Inhibitors To Reverse Temozolomide Resistance in Glioblastoma Multiforme” (J Med Chem, 2024):
pIC50: −log10 of the molar value. Calls of active or inactive are those of the source. No cut-off for these calls is given here. Starred links: 1 amine or outer side, 2 acyl side, 3 side chain; linkers in the order of their positions; H or OH if unused. Positions of bridges follow the written chain, without caps; N, C: chain ends. Non-standard residues stand in square brackets, D forms with d. Residues, ends and D or L forms follow the SMILES beside them. Adda = CO[C@@H](Cc1ccccc1)[C@@H](C)/C=C(C)/C=C/[C@H](N[*:1])[C@H](C)C(=O)[*:2]; dAsp(3S-Me) = C[C@H](C(=O)[*:3])[C@@H](N[*:1])C(=O)[*:2]; d(γGlu) = O=C(O)[C@@H](CCC(=O)[*:2])N[*:1]; NMeDha = C=C(NC)C(=O)O

Tests used:
[1] = Aqueous stability of compound assessed as compound remaining measured at 240 mins by HPLC assay; format: physicochemical; conditions: aqueous solution, read-out: Stability
[2] = Cytotoxicity against HUVECs incubated for 48 hrs by CCK8 assay; format: toxicity, cell-based; conditions: human, HUVEC cells
[3] = Toxicity in BALB/c nude mouse xenografted with U-87 MG cells assessed as kidney damage at 3 mg/kg, po administered every other day for 18 days in presence of 40 mg/kg TMZ by H and E staining based assay; format: organism-based; conditions: in vivo, 432 h, time 18 day
[4] = system: U-87MG ATCC; assay: Downregulation of cyclin D1 expression in human U-87 MG cells at 25 uM incubated for 24 hrs in presence TMZ by Western blotting analysis; format: functional, cell-based
[5] = Cytotoxicity against human BEAS-2B incubated for 48 hrs by CCK8 assay; format: toxicity, cell-based; conditions: BEAS-2B cells
[6] = system: U-87MG ATCC; assay: Upregulation of p53 expression in human U-87 MG cells at 6.25 to 100 uM after 24 hrs by Western blotting analysis; format: functional, cell-based; conditions: dose 6.25-100 µM
[7] = system: A549; assay: Cytotoxicity against human A549 cells incubated for 48 hrs by CCK8 assay; format: functional, cell-based; conditions: A549, 48 h
[8] = species: Homo sapiens; assay: Selectivity ratio of IC50 for PP1 (unknown origin ) to IC50 for PP5 (unknown origin)
[9] = Aqueous stability of compound assessed as compound remaining measured at 10 mins by HPLC assay; format: physicochemical; conditions: aqueous solution, read-out: Stability
[10] = system: U-87 MG; assay: Induction of apoptosis in human U-87 MG cells assessed as S phase cells at 25 uM incubated for 24 hrs in presence of TMZ by propidium iodide staining based flow cytometry analysis (reference value: 29.4%); format: functional, U-87MG ATCC
[11] = Aqueous stability of compound assessed as compound remaining measured at 30 mins by HPLC assay; format: physicochemical; conditions: aqueous solution, read-out: Stability
[12] = Aqueous stability of compound assessed as compound remaining measured at 120 mins by HPLC assay; format: physicochemical; conditions: aqueous solution, read-out: Stability
[13] = species: Homo sapiens; assay: Selectivity ratio of IC50 for PP2A (unknown origin ) to IC50 for PP5 (unknown origin)
[14] = system: U-87 MG; assay: Induction of apoptosis in human U-87 MG cells assessed as G2/M phase cells at 25 uM incubated for 24 hrs in presence of TMZ by propidium iodide staining based flow cytometry analysis (reference value: 11.9%); format: functional, U-87MG ATCC
[15] = system: U-87 MG; assay: Induction of apoptosis in human U-87 MG cells assessed as G2/M phase cells at 5 uM incubated for 24 hrs by propidium iodide staining based flow cytometry analysis (reference value: 11.9%); format: functional, U-87MG ATCC
[16] = target: T1, Serine/threonine-protein phosphatase 5 (Homo sapiens, UniProt P53041); assay: Inhibition of human PPP5C (169 to 499 residues) expressed in Escherichia coli using [32P]-phosphohistone as substrate preincubated for 10 mins followed by substrate addition
T1 sequence (P53041 whole entry): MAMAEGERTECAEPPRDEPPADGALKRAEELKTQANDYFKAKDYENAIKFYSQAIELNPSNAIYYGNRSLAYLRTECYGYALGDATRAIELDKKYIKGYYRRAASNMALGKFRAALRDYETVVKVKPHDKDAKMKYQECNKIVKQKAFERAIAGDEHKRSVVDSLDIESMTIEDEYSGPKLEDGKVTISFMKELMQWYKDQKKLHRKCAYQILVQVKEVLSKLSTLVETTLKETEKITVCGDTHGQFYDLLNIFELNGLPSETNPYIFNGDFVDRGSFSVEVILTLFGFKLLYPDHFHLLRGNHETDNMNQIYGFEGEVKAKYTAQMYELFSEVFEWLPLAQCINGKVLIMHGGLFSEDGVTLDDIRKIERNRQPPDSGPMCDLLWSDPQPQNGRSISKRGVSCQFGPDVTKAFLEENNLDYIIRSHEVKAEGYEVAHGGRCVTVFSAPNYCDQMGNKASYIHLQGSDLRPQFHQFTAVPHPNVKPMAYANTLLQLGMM

[17] = system: HCT-116; assay: Cytotoxicity against human HCT-116 cells incubated for 48 hrs by CCK8 assay; format: functional, cell-based; conditions: HCT-116, 48 h
[18] = Aqueous stability of compound assessed as compound remaining measured at 480 mins by HPLC assay; format: physicochemical; conditions: aqueous solution, read-out: Stability
[19] = system: U-87 MG; assay: Antitumor activity against human U-87 MG cells xenografted in BALB/c nude mouse assessed as tumor growth inhibition at 3 mg/kg, po administered every other day for 18 days in presence of 40 mg/kg TMZ; format: functional, U-87MG ATCC; conditions: 432 h, time 18 day, read-out: TGI
[20] = Toxicity in BALB/c nude mouse xenografted with U-87 MG cells assessed as kidney damage at 3 mg/kg, po administered every other day for 18 days by H and E staining based assay; format: organism-based; conditions: in vivo, 432 h, time 18 day
[21] = Toxicity in BALB/c nude mouse xenografted with U-87 MG cells assessed as liver damage at 3 mg/kg, po administered every other day for 18 days in presence of 40 mg/kg TMZ by H and E staining based assay; format: organism-based; conditions: in vivo, 432 h, time 18 day
[22] = Stability in mouse plasma assessed as half life measured upto 300 mins by LC-MS/MS analysis; format: ADME, cell-free
[23] = system: U-87 MG; assay: Antitumor activity against human U-87 MG cells xenografted in BALB/c nude mouse assessed as reduction in MGMT expression at 1.5 to 3 mg/kg, po measured after 4 hrs in presence of 40 mg/kg TMZ by Western blotting analysis; format: functional, organism-based; conditions: U-87MG ATCC, dose 1.5-3 mg/kg
[24] = Inhibition of PP2A in human U-87 MG cell lysate using RRA(pT)VA as substrate; format: subcellular
[25] = system: U-87 MG; assay: Induction of apoptosis in human U-87 MG cells assessed as G0/G1 phase cells at 5 uM incubated for 24 hrs by propidium iodide staining based flow cytometry analysis (reference value: 58.8%); format: functional, U-87MG ATCC
[26] = Toxicity in BALB/c nude mouse xenografted with U-87 MG cells assessed as liver damage at 3 mg/kg, po administered every other day for 18 days by H and E staining based assay; format: organism-based; conditions: in vivo, 432 h, time 18 day
[27] = Aqueous stability of compound assessed as compound remaining measured at 60 mins by HPLC assay; format: physicochemical; conditions: aqueous solution, read-out: Stability
[28] = Stability of compound in water assessed as remaining compound after 24 hrs; format: physicochemical; conditions: read-out: Stability
[29] = Inhibition of bovine PP2A using [32P]-phosphohistone as substrate preincubated for 10 mins followed by substrate addition; set-up: species or system Bos taurus
[30] = system: U-87 MG; assay: Induction of apoptosis in human U-87 MG cells assessed as S phase cells at 5 uM incubated for 24 hrs by propidium iodide staining based flow cytometry analysis (reference value: 29.4%); format: functional, U-87MG ATCC
[31] = system: U-87 MG; assay: Cytotoxicity against human U-87 MG cells incubated for 48 hrs by CCK8 assay; format: functional, cell-based, U-87MG ATCC
[32] = Cytotoxicity against HEK293T cells incubated for 48 hrs by CCK8 assay; format: toxicity, cell-based, HEK-293T; conditions: human
[33] = system: U-87 MG; assay: Induction of apoptosis in human U-87 MG cells assessed as G0/G1 phase cells at 25 uM incubated for 24 hrs in presence of TMZ by propidium iodide staining based flow cytometry analysis (reference value: 58.8%); format: functional, U-87MG ATCC
[34] = Inhibition of PP2A (unknown origin)
[35] = system: U-87 MG; assay: Induction of apoptosis in human U-87 MG cells assessed as G0/G1 phase cells at 25 uM incubated for 24 hrs by propidium iodide staining based flow cytometry analysis (reference value: 58.8%); format: functional, U-87MG ATCC
[36] = system: U-87 MG; assay: Induction of apoptosis in human U-87 MG cells assessed as G2/M phase cells at 25 uM incubated for 24 hrs by propidium iodide staining based flow cytometry analysis (reference value: 11.9%); format: functional, U-87MG ATCC
[37] = system: U-87 MG; assay: Induction of apoptosis in human U-87 MG cells assessed as S phase cells at 25 uM incubated for 24 hrs by propidium iodide staining based flow cytometry analysis (reference value: 29.4%); format: functional, U-87MG ATCC
[38] = system: U-87 MG; assay: Antitumor activity against human U-87 MG cells xenografted in BALB/c nude mouse assessed as tumor growth retardation at 40 mg/kg, po administered every other day for 18 days; format: functional, organism-based; conditions: U-87MG ATCC, time 18.0 day

O=C(Nc1ccccc1)[C@@H]1[C@H](C(=O)O)[C@H]2CC[C@@H]1O2
remaining at 4 h [1]: 74.5%

O=C(O)[C@@H]1[C@H](C(=O)NC2CCCC2)[C@H]2CC[C@@H]1O2
remaining at 4 h [1]: 72.2%

CC1c2ccccc2CN1C(=O)[C@@H]1[C@H](C(=O)O)[C@H]2CC[C@@H]1O2 (stereo partly drawn)
remaining at 4 h [1]: 71.8%

O=C(O)[C@@H]1[C@H](C(=O)N2CCC2)[C@H]2CC[C@@H]1O2
remaining at 4 h [1]: 33.8%

CN1CCN(C(=O)[C@@H]2[C@H](C(=O)O)[C@H]3CC[C@@H]2O3)CC1
IC50 at 48 h [2]: 9700 nM
remaining at 4 h [1]: 45.6%
Activity [3]: Toxic
Activity [4]: inactive
IC50 at 48 h [5]: 3500 nM
Activity [6]: inactive
pIC50 [7]: 5.06
Ratio IC50 [8]: 0.7
remaining at 10 min [9]: 93%
Activity [10]: 11.8%
remaining at 0.5 h [11]: 79%
remaining at 2 h [12]: 50%
Ratio IC50 [13]: 0.1
Activity [14]: 22.9%
Activity [15]: 14.4%
pIC50 [16]: 5.52
pIC50 [17]: 5.00
remaining at 8 h [18]: 14%
inhibition in vivo at 3 mg/kg [19]: 46.2%
Activity [20]: Toxic
Activity [21]: Toxic
half-life [22]: 5.03 h
Activity [23]: inactive
pIC50 [24]: 6.00
Activity [25]: 57.4%
Activity [26]: Toxic
remaining at 1 h [27]: 68%
remaining at 24 h [28]: 5.3%
pIC50 [29]: 8.05
Activity [30]: 28.4%
pIC50 [31]: 4.59
IC50 at 48 h [32]: 26600 nM
Activity [33]: 52.6%

C=C1[C@@H](O)[C@@H]2O[C@]3(CC[C@H](/C=C/[C@@H](C)[C@@H]4CC(C)=C[C@@]5(O[C@H](C[C@@](C)(O)C(=O)O)CC[C@H]5O)O4)O3)CC[C@H]2O[C@@H]1[C@@H](O)C[C@H](C)[C@H]1O[C@@]2(CCCCO2)CC[C@H]1C [OKADAIC ACID]
pIC50 [34]: 10.00

C=C1C(=O)N[C@H](C)C(=O)N[C@@H](CC(C)C)C(=O)N[C@@H](C(=O)O)[C@H](C)C(=O)N[C@@H](CCCNC(=N)N)C(=O)N[C@@H](/C=C/C(C)=C/[C@H](C)[C@H](Cc2ccccc2)OC)[C@H](C)C(=O)N[C@@H](C(=O)O)CCC(=O)N1C [MICROCYSTIN-LR] (R[Adda][d(γGlu)][NMeDha][dA]L[dAsp(3S-Me)]-OH; lactam N-7)
pIC50 [34]: 10.40

O=CN1CCN(C(=O)[C@@H]2[C@H](C(=O)O)[C@H]3CC[C@@H]2O3)CC1
remaining at 4 h [1]: 80.3%

O=C1OC(=O)C2C3CCC(O3)C12 (stereo not drawn)
pIC50 [34]: 5.52

C[C@@]12C(=O)OC(=O)[C@]1(C)[C@H]1CC[C@@H]2O1 [CANTHARIDIN]
pIC50 [34]: 6.80

C[C@@](O)(/C=C/[C@H]1CC=CC(=O)O1)[C@@H](C[C@@H](O)\C=C/C=C\C=C\CO)OP(=O)(O)O [FOSTRIECIN]
pIC50 [34]: 8.82

O=C(O)[C@@H]1[C@H](C(=O)N2CCc3ccccc32)[C@H]2CC[C@@H]1O2
remaining at 4 h [1]: 52.8%

O=C(O)[C@@H]1[C@H](C(=O)N2CC=CC2)[C@H]2CC[C@@H]1O2
remaining at 4 h [1]: 35.7%

Cn1nnc2c(C(N)=O)ncn2c1=O [TEMOZOLOMIDE]
Activity [35]: 54.5%
Activity [36]: 13.5%
Activity [37]: 31.5%
Activity [10]: 69.6%
Activity [38]: Active
Activity [14]: 7.4%
pIC50 [31]: < 3.70
Activity [33]: 37.7%

O=C(O)[C@@H]1[C@H](C(=O)N2CCN(c3ccccc3)CC2)[C@H]2CC[C@@H]1O2
remaining at 4 h [1]: 93%

O=C(NC1CCCCC1)[C@@H]1[C@H](C(=O)O)[C@H]2CC[C@@H]1O2
remaining at 4 h [1]: 73.2%

O=C(O)[C@H]1[C@@H](C(=O)N2Cc3ccccc3C2)[C@@H]2CC[C@H]1O2
remaining at 4 h [1]: 46.4%

C/C=C1/C(=O)N[C@@H](C(=O)O)[C@H](C)C(=O)N[C@@H](CCCNC(=N)N)C(=O)N[C@@H](/C=C/C(C)=C/[C@H](C)[C@H](Cc2ccccc2)OC)[C@H](C)C(=O)N[C@@H](C(=O)O)CCC(=O)N1C [NODULARIN]
pIC50 [34]: 9.52

O=C(NC1CCCC1)[C@@H]1[C@H](C(=O)O)[C@H]2CC[C@@H]1O2
remaining at 4 h [1]: 10.2%
